28 compounds from patent US9670211B2, “Aza-oxo-indoles for the treatment and prophylaxis of respiratory syncytial virus infection” (Hoffmann-La Roche Inc., priority 2013, dated 2017) can be followed below.

For this assay, the system named is RSV Long strain. The assay can be described thus: Viral Cytopathic Effect (CPE) Assay. The format is cell-based. Conditions: human respiratory syncytial virus, 144 h; RSV Long strain (ATCC), cell viability after 6 days by Cell Counting kit-8. How it is done: Viral Cytopathic Effect (CPE) Assay
To measure anti-RSV activity of compounds, 96-well plates are seeded with 6×10^3 cells per well in Dulbecco's modified Eagle's medium (DMEM) containing 10% fetal bovine serum (FBS). Cells are infected the next day with sufficient RSV Long strain (ATCC) to produce an approximately 80-90% cytopathic effect after 6 days, in the presence of serial half-log diluted compound in a total volume of 200 μL per well. The viability of cells is assessed after 6 days using Cell Counting kit-8 (Dojindo Molecular Technologies). The absorbance at 450 nm and referenced at 630 nm is measured to determine 50% effective concentration (EC50).
A general note: Protection from cytopathic effect is a common read-out in antiviral testing.
By EC50 is commonly meant the concentration needed to bring the measured effect to its halfway point. Read a high EC50 as a need for much substance. Consider `CC1(C)[C@H](n2c(CN3C(=O)C4(CC4)c4ccncc43)nc3cc(Cl)ccc32)CCS1(=O)=O` (stereo in doubt) [Example 13, 1′-{[5-Chloro-1-(2,2-dimethyl-1,1-dioxidotetrahydrothiophen-3-yl)-1H-benzimidazol-2-yl]methyl}spiro[cyclopropane-1,3′-pyrrolo[2,3-c]pyridin]-2′(1′H)-one], for which the EC50 stood at 0.397 µM. For the compound `CS(=O)(=O)[C@H]1C[C@@H](n2c(CN3C(=O)C4(CC4)c4ccncc43)nc3cc(Cl)ccc32)C1` [Example 1-1, 1′-({5-Chloro-1-[cis-3-(methylsulfonyl)cyclobutyl]-1H-benzimidazol-2-yl}methyl)spiro[cyclopropane-1,3′-pyrrolo[2,3-c]pyridin]-2′(1′H)-one], the EC50 turned out to be 0.01 µM.

`CS(=O)(=O)[C@H]1C[C@H](n2c(CN3C(=O)C4(CC4)c4ccncc43)nc3cc(Cl)ccc32)C1` [Example 1-2, 1′-({5-Chloro-1-[trans-3-(methylsulfonyl)cyclobutyl]-1H-benzimidazol-2-yl}methyl)spiro[cyclopropane-1,3′-pyrrolo[2,3-c]pyridin]-2′(1′H)-one] yielded an EC50 of 0.006 µM.

Consider `O=C1N(Cc2nc3cc(Cl)ccc3n2C2CC3(C2)CS(=O)(=O)C3)c2cnccc2C12CC2` [Example 2-1, 1′-{[5-Chloro-1-(2,2-dioxido-2-thiaspiro[3.3]hept-6-yl)-1H-benzimidazol-2-yl]methyl}spiro[cyclopropane-1,3′-pyrrolo[2,3-c]pyridin]-2′(1′H)-one], for which the EC50 came out at 0.004 µM. In the case of `O=C1N(Cc2nc3cc(Cl)ccc3n2C2CCS(=O)(=O)CC2)c2cnccc2C12CC2` [Example 2-2, 1′-{[5-Chloro-1-(1,1-dioxidotetrahydro-2H-thiopyran-4-yl)-1H-benzimidazol-2-yl]methyl}spiro[cyclopropane-1,3′-pyrrolo[2,3-c]pyridin]-2′(1′H)-one], the EC50 stood at 0.006 µM.

With `O=C1N(Cc2nc3cc(Cl)ccc3n2C2CCCC2)c2cnccc2C12CC2` [Example 2-3, 1′-[(5-Chloro-1-cyclopentyl-1H-benzimidazol-2-yl)methyl]spiro[cyclopropane-1,3′-pyrrolo[2,3-c]pyridin]-2′(1′H)-one], the EC50 is 0.032 µM. As for `O=C1N(Cc2nc3cc(Cl)ccc3n2C2COC2)c2cnccc2C12CC2` [Example 2-4, 1′-{[5-Chloro-1-(oxetan-3-yl)-1H-benzimidazol-2-yl]methyl}spiro[cyclopropane-1,3′-pyrrolo[2,3-c]pyridin]-2′(1′H)-one], the EC50 was 0.07 µM. The same measure for `O=C1N(Cc2nc3cc(Cl)ccc3n2C2CC(F)(F)C2)c2cnccc2C12CC2` [Example 2-5, 1′-{[5-Chloro-1-(3,3-difluorocyclobutyl)-1H-benzimidazol-2-yl]methyl}spiro[cyclopropane-1,3′-pyrrolo[2,3-c]pyridin]-2′(1′H)-one]: 0.016 µM. `O=C1N(Cc2nc3cc(Cl)ccc3n2C2CCOCC2)c2cnccc2C12CC2` [Example 2-6, 1′-{[5-Chloro-1-(tetrahydro-2H-pyran-4-yl)-1H-benzimidazol-2-yl]methyl}spiro[cyclopropane-1,3′-pyrrolo[2,3-c]pyridin]-2′(1′H)-one] yielded an EC50 of 0.023 µM. Consider `O=C1N(Cc2nc3cc(Cl)ccc3n2C2CCC(O)CC2)c2cnccc2C12CC2` (stereo not shown) [Example 2-7, 1′-{[5-Chloro-1-(4-hydroxycyclohexyl)-1H-benzimidazol-2-yl]methyl}spiro[cyclopropane-1,3′-pyrrolo[2,3-c]pyridin]-2′(1′H)-one], for which the EC50 is 0.0011 µM. The same measure for `O=C1N(Cc2nc3cc(Cl)ccc3n2C2CCC(O)C2)c2cnccc2C12CC2` (stereo not shown) [Example 2-8, 1′-{[5-Chloro-1-(3-hydroxycyclopentyl)-1H-benzimidazol-2-yl]methyl}spiro[cyclopropane-1,3′-pyrrolo[2,3-c]pyridin]-2′(1′H)-one]: 0.011 µM. To `O=C1NCCC1n1c(CN2C(=O)C3(CC3)c3ccncc32)nc2cc(Cl)ccc21` (stereo not shown) [Example 2-9, 1′-{[5-Chloro-1-(2-oxopyrrolidin-3-yl)-1H-benzimidazol-2-yl]methyl}spiro[cyclopropane-1,3′-pyrrolo[2,3-c]pyridin]-2′(1′H)-one] belongs 0.164 µM. As to `O=C1CC(n2c(CN3C(=O)C4(CC4)c4ccncc43)nc3cc(Cl)ccc32)CCN1` (stereo not shown) [Example 2-10, 1′-{[5-Chloro-1-(2-oxopiperidin-4-yl)-1H-benzimidazol-2-yl]methyl}spiro[cyclopropane-1,3′-pyrrolo[2,3-c]pyridin]-2′(1′H)-one], the EC50 came out at 0.005 µM. The same measure for `O=C1N(Cc2nc3cc(Cl)ccc3n2C2CCC(F)(F)C2)c2cnccc2C12CC2` (stereo not shown) [Example 2-11, 1′-{[5-Chloro-1-(3,3-difluorocyclopentyl)-1H-benzimidazol-2-yl]methyl}spiro[cyclopropane-1,3′-pyrrolo[2,3-c]pyridin]-2′(1′H)-one]: 0.017 µM.

Consider `O=C1N(Cc2nc3cc(Cl)ccc3n2[C@H]2CC[C@@H](C(=O)O)CC2)c2cnccc2C12CC2` [Example 2-12, cis-4-{5-Chloro-2-[(2′-oxospiro[cyclopropane-1,3′-pyrrolo[2,3-c]pyridin]-1′(2′H)-yl)methyl]-1H-benzimidazol-1-yl}cyclohexanecarboxylic acid], for which the half-maximal effective concentration (EC50) turned out to be 0.51 µM. To `O=C1N(Cc2nc3cc(Cl)cnc3n2C2CCS(=O)(=O)C2)c2cnccc2C12CC2` (stereo not shown) [Example 2-13, 1′-{[6-Chloro-3-(1,1-dioxidotetrahydrothiophen-3-yl)-3H-imidazo[4,5-b]pyridin-2-yl]methyl}spiro[cyclopropane-1,3′-pyrrolo[2,3-c]pyridin]-2′(1′H)-one] belongs 0.015 µM; to `O=C1N(Cc2nc3cc(Cl)ccc3n2C2CCOC2)c2cnccc2C12CC2` (stereo not shown) [Example 2-14, 1′-{[5-Chloro-1-(tetrahydrofuran-3-yl)-1H-benzimidazol-2-yl]methyl}spiro[cyclopropane-1,3′-pyrrolo[2,3-c]pyridin]-2′(1′H)-one], 0.006 µM. The same measure for `CC(C)(C)OC(=O)N1CCC(n2c(CN3C(=O)C4(CC4)c4ccncc43)nc3cc(Cl)ccc32)C1` (stereo not shown) [Example 2-15, tert-Butyl 3-{5-chloro-2-[(2′-oxospiro[cyclopropane-1,3′-pyrrolo[2,3-c]pyridin]-1′(2′H)-yl)methyl]-1H-benzimidazol-1-yl}pyrrolidine-1-carboxylate]: 0.031 µM. The same measure for `O=C1N(Cc2nc3cc(Cl)ccc3n2C(CO)CO)c2cnccc2C12CC2` [Example 2-16, 1′-{[5-Chloro-1-(1,3-dihydroxypropan-2-yl)-1H-benzimidazol-2-yl]methyl}spiro[cyclopropane-1,3′-pyrrolo[2,3-c]pyridin]-2′(1′H)-one]: 0.122 µM. Turning to `C[C@]1(O)C[C@H](n2c(CN3C(=O)C4(CC4)c4ccncc43)nc3cc(Cl)ccc32)C1` [Example 2-17, 1′-{[5-Chloro-1-(trans-3-hydroxy-3-methylcyclobutyl)-1H-benzimidazol-2-yl]methyl}spiro[cyclopropane-1,3′-pyrrolo[2,3-c]pyridin]-2′(1′H)-one], the EC50 is 0.005 µM. In turn, `O=C1N(Cc2nc3cc(Cl)ccc3n2C2CCS(=O)(=O)C2)c2cnccc2C12CC2` (stereo not shown) [Example 3-1, 1′-{[5-Chloro-1-(1,1-dioxidotetrahydrothiophen-3-yl)-1H-benzimidazol-2-yl]methyl}spiro[cyclopropane-1,3′-pyrrolo[2,3-c]pyridin]-2′(1′H)-one] yielded a 50% effective concentration (EC50) of 0.006 µM. To `O=C1N(Cc2nc3cc(Cl)ccc3n2[C@H]2CCS(=O)(=O)C2)c2cnccc2C12CC2` [Example 3-2, 1′-({5-Chloro-1-[(3S)-1,1-dioxidotetrahydrothiophen-3-yl]-1H-benzimidazol-2-yl}methyl)spiro[cyclopropane-1,3′-pyrrolo[2,3-c]pyridin]-2′(1′H)-one] belongs 0.01 µM.

On to `O=C1N(Cc2nc3cc(Cl)ccc3n2[C@@H]2CCS(=O)(=O)C2)c2cnccc2C12CC2` [Example 3-3, 1′-({5-Chloro-1-[(3R)-1,1-dioxidotetrahydrothiophen-3-yl]-1H-benzimidazol-2-yl}methyl)spiro[cyclopropane-1,3′-pyrrolo[2,3-c]pyridin]-2′(1′H)-one], for which the half-maximal effective concentration (EC50) was determined as 0.0016 µM. For the compound `O=C1N(Cc2nc3cc(Cl)ccc3n2C2CS(=O)(=O)C2)c2cnccc2C12CC2` [Example 4-1, 1′-{[5-Chloro-1-(1,1-dioxidothietan-3-yl)-1H-benzimidazol-2-yl]methyl}spiro[cyclopropane-1,3′-pyrrolo[2,3-c]pyridin]-2′(1′H)-one], the EC50 came out at 0.0065 µM. Turning to `CC1(C)C(=O)N(Cc2nc3cc(Cl)ccc3n2C2CS(=O)(=O)C2)c2cnccc21` [Example 4-2, 1-{[5-Chloro-1-(1,1-dioxidothietan-3-yl)-1H-benzimidazol-2-yl]methyl}-3,3-dimethyl-1,3-dihydro-2H-pyrrolo[2,3-c]pyridin-2-one], the EC50 was determined as 0.095 µM.

`CCC1(CC)C(=O)N(Cc2nc3cc(Cl)ccc3n2C2CS(=O)(=O)C2)c2cnccc21` [Example 4-3, 1-{[5-Chloro-1-(1,1-dioxidothietan-3-yl)-1H-benzimidazol-2-yl]methyl}-3,3-diethyl-1,3-dihydro-2H-pyrrolo[2,3-c]pyridin-2-one] displayed an EC50 of 0.207 µM. `O=C1N(Cc2nc3cc(Cl)ccc3n2C2C[S+]([O-])C2)c2cnccc2C12CC2` (stereo not shown) [Example 5, 1′-{[5-Chloro-1-(1-oxidothietan-3-yl)-1H-benzimidazol-2-yl]methyl}spiro[cyclopropane-1,3′-pyrrolo[2,3-c]pyridin]-2′(1′H)-one]: it took 0.005 µM to reach a half-maximal effect (EC50). To `O=C1N(Cc2nc3cc(Cl)cc(F)c3n2C2CS(=O)(=O)C2)c2cnccc2C12CC2` [Example 6, 1′-{[5-Chloro-1-(1,1-dioxidothietan-3-yl)-7-fluoro-1H-benzimidazol-2-yl]methyl}spiro[cyclopropane-1,3′-pyrrolo[2,3-c]pyridin]-2′(1′H)-one] belongs 0.0009 µM.
